Converted amounts (≈) assume the structure as drawn. The source made the active and inactive calls. The rule behind the calls is not given here.
How the values were obtained:
[1] = target: Rho-associated protein kinase 2 (Homo sapiens, UniProt O75116); experiment: Inhibition of ROCK2
[2] = Clearance in rat at 1 mg/kg, iv or 2 mg/kg, po; assay type: ADME, organism-based; conditions: in vivo
[3] = Half life in rat at 1 mg/kg, iv or 2 mg/kg, po; assay type: ADME, organism-based; conditions: in vivo
CYP2D6 = CYP2D6 (Homo sapiens, UniProt P10635); experiment: Inhibition of CYP2D6 at 10 uM; assay type: ADME
[4] = AUC in rat at 2 mg/kg, po; assay type: ADME, organism-based; set-up: dose 2 mg/kg, route oral; conditions: plasma
[5] = Oral bioavailability in rat at 2 mg/kg; assay type: ADME, organism-based; conditions: in vivo
CYP3A4 = CYP3A4 (Homo sapiens, UniProt P08684); experiment: Inhibition of CYP3A4 at 10 uM; assay type: ADME
[6] = Cmax in rat at 2 mg/kg, po; assay type: ADME, organism-based; set-up: dose 2 mg/kg, route oral; conditions: in vivo
CYP2C9 = CYP2C9 (Homo sapiens, UniProt P11712); experiment: Inhibition of CYP2C9 at 10 uM; assay type: ADME
CYP1A2 = target: T1, CYP1A2 (Homo sapiens, UniProt P05177); experiment: Inhibition of CYP1A2 at 10 uM; assay type: ADME
T1 sequence (P05177 whole entry): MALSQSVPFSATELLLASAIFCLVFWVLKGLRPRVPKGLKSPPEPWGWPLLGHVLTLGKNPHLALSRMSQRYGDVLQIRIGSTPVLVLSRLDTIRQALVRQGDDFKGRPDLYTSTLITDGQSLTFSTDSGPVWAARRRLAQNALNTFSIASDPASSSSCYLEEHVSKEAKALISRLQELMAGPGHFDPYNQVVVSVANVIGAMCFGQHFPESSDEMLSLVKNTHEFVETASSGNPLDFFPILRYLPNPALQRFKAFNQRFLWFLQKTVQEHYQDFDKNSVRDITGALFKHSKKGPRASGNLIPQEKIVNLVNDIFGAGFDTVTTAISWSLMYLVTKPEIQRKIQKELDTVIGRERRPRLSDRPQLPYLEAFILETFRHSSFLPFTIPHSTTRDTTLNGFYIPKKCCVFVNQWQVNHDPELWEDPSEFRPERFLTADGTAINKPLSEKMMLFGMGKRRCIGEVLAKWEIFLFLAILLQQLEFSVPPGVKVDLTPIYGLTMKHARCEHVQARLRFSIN

[7] = target: Rho-associated protein kinase 1 (Homo sapiens, UniProt Q13464); experiment: Inhibition of ROCK1
[8] = Half life in human liver microsomes; assay type: ADME, Microsome
[9] = Volume of distribution at steady state in rat at 1 mg/kg, iv or 2 mg/kg, po; assay type: ADME, organism-based; conditions: in vivo, read-out: Vdss
[10] = AUC in rat at 1 mg/kg, iv; assay type: ADME, organism-based; set-up: dose 1 mg/kg, route intravenous; conditions: plasma
[11] = Inhibition of PKA
[12] = Aqueous solubility of compound at pH 7.4; assay type: physicochemical; conditions: buffer
[13] = Aqueous solubility of compound at pH 5.5; assay type: physicochemical; conditions: buffer
[14] = Inhibition of myosin light chain bisphosphorylation by cell-based assay
[15] = target: Serine/threonine-protein kinase MRCK alpha (Homo sapiens) (UniProt Q5VT25); experiment: Inhibition of MRCKalpha at 5 uM
[16] = target: RAC-alpha serine/threonine-protein kinase (Homo sapiens) (UniProt P31749); experiment: Inhibition of AKT at 5 uM
[17] = target: Mitogen-activated protein kinase 10 (Homo sapiens) (UniProt P53779); experiment: Inhibition of JNK3 at 5 uM
[18] = Inhibition of p38 at 5 uM

Sequence of CYP2D6 (P10635 whole entry): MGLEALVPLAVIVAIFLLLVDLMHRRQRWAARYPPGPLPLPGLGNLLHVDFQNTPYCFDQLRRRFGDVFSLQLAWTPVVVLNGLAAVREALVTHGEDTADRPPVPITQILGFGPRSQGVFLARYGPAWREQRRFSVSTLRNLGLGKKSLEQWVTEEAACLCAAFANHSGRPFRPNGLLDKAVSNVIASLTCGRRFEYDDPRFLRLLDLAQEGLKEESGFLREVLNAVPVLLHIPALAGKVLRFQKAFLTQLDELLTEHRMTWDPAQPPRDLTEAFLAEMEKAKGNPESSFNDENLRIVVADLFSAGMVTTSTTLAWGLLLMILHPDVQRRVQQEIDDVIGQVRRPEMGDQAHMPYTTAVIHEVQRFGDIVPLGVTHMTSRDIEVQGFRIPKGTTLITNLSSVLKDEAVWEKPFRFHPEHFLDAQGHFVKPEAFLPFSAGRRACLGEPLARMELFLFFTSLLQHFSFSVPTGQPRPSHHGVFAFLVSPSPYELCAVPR
Sequence of CYP2C9 (P11712 whole entry): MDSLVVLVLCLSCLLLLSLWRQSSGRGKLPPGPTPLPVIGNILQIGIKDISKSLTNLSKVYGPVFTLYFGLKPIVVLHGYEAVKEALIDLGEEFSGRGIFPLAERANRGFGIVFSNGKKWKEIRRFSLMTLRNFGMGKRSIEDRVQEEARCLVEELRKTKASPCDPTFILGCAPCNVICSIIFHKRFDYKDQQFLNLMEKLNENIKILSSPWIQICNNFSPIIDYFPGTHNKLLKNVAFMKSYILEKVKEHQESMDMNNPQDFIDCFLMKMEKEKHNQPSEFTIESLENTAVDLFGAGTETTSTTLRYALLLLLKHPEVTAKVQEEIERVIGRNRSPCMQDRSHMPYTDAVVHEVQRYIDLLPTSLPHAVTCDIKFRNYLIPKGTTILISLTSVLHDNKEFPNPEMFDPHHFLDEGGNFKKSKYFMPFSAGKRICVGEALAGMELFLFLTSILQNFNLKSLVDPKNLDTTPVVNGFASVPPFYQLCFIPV
Sequence of CYP3A4 (P08684 whole entry): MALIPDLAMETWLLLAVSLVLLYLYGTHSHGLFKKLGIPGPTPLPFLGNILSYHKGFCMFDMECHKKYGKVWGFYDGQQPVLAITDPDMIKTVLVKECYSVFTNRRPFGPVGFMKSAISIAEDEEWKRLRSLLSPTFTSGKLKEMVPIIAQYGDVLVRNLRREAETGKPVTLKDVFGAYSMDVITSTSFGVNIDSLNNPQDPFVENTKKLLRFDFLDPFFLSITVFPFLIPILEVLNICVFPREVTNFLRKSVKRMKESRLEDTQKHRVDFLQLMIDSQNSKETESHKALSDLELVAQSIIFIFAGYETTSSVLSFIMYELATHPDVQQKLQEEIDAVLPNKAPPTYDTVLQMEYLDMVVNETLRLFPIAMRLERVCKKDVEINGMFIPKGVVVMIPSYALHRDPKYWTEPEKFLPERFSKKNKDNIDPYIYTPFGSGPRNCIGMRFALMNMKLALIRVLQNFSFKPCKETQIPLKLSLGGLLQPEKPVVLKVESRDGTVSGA
Sequence of Rho-associated protein kinase 1 (Q13464 whole entry): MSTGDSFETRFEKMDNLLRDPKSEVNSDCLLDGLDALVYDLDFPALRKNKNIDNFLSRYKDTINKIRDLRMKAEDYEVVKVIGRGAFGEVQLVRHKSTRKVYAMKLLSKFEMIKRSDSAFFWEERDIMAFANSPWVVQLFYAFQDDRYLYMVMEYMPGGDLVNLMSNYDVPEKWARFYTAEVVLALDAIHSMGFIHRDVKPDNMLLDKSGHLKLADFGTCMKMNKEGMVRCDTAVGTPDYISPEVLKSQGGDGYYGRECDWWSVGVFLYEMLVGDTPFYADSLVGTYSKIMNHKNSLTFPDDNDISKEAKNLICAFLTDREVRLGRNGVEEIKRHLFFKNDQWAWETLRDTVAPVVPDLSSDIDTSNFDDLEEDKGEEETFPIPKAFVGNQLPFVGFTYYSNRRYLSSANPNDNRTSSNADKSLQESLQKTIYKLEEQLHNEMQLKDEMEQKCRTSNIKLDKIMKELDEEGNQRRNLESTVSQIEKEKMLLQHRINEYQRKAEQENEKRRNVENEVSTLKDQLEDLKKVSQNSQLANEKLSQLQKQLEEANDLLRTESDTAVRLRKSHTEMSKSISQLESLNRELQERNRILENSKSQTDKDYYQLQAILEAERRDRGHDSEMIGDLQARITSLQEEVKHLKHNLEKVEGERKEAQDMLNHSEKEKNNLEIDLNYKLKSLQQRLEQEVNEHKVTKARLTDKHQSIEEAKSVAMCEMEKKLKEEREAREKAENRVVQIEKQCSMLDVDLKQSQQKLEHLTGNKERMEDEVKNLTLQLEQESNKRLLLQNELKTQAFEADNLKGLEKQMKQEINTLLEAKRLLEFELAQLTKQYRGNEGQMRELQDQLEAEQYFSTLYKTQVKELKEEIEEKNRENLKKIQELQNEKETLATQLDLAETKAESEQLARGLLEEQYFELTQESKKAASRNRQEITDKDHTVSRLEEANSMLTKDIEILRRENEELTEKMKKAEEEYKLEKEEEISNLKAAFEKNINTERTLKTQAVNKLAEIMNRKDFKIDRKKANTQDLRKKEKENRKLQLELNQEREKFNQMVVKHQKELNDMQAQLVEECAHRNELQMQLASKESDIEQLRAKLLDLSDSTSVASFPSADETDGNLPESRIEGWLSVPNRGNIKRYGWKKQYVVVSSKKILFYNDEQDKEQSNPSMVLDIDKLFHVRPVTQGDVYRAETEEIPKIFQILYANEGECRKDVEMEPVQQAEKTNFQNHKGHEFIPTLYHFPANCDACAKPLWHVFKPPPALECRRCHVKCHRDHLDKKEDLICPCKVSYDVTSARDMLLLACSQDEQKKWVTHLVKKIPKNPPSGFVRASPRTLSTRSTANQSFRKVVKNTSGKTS
Sequence of Rho-associated protein kinase 2 (O75116 whole entry): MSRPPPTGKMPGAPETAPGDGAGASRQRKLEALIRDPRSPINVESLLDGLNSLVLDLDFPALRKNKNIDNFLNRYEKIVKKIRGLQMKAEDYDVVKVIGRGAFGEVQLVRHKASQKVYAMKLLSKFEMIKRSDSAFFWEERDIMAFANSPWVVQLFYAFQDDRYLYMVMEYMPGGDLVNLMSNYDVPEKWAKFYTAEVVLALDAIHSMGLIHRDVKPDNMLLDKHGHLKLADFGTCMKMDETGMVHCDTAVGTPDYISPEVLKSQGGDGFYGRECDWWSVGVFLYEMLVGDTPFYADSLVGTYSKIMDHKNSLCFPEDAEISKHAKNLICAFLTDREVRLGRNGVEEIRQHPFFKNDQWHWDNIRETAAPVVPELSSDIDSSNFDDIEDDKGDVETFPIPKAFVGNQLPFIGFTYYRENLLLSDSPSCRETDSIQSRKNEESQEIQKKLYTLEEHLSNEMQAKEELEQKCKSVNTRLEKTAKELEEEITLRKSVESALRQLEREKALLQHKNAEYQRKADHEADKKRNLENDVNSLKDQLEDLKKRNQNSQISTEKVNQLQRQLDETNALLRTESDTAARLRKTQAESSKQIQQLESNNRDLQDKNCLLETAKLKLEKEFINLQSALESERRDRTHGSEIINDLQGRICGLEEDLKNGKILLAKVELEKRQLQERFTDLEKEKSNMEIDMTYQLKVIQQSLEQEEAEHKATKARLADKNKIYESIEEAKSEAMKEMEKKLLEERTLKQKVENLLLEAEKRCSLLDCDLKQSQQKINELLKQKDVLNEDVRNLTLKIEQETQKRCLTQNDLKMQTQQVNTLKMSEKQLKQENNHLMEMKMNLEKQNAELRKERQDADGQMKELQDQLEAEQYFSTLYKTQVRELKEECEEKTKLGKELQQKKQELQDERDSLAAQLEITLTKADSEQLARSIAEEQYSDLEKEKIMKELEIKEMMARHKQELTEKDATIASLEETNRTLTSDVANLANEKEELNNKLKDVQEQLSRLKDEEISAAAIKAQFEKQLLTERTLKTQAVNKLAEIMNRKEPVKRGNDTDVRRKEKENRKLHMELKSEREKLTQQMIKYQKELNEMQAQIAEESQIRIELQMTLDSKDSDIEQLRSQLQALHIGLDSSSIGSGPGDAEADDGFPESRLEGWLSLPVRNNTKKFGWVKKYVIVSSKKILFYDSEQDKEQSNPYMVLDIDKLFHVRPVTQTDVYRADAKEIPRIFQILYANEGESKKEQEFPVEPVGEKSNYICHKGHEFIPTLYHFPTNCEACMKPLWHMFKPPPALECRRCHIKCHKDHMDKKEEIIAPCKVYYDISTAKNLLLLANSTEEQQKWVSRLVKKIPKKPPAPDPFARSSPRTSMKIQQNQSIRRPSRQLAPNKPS
Sequence of RAC-alpha serine/threonine-protein kinase (Homo sapiens) (P31749 whole entry): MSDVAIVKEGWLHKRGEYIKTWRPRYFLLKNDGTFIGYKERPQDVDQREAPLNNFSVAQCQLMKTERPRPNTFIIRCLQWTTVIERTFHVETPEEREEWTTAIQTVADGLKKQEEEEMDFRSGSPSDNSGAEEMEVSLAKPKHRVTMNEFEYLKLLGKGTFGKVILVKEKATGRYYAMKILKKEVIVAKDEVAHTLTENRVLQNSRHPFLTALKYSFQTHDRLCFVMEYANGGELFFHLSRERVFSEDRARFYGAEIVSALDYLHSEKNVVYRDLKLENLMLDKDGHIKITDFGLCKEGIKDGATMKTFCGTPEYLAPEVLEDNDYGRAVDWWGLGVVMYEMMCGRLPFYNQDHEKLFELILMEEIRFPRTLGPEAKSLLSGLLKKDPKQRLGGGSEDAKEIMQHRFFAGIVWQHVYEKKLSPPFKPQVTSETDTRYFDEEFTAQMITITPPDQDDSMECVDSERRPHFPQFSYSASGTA

SMILES | IC50 [1] [nM] | clearance [2] [mL/min/kg] | half-life [3] [min] | inhibition at 10 µM (CYP2D6) [%] | AUC [4] [µM·h] | bioavailability [5] [%] | inhibition at 10 µM (CYP3A4) [%] | inhibition at 10 µM (CYP2C9) [%] | inhibition at 10 µM (CYP1A2) [%] | IC50 [7] [nM] | half-life [8] [min] | Vd [9] [L/kg] | AUC [10] [µM·h] | IC50 [11] [nM] | solubility [12] [µM] | solubility [13] [µM] | also measured
COc1cccc(CN(C(=O)c2cc3ccc(-c4cn[nH]c4)nc3[nH]2)C2CC2)c1 | 8 | 21 | 54 | 30 | 1 | 22 | 40 | 52 | 16 | 33 | 27 | 1.2 | 2.2 | 1700 |  |  | Cmax [6]: 255 nM
COc1cccc(CNC(=O)c2c[nH]c3cc(-c4cn[nH]c4)ccc23)c1 |  |  |  |  |  |  |  |  |  |  |  |  |  | 510 | ≤ 0.01 | ≤ 0.01 | 
COc1cccc(CNC(=O)c2cc3ccc(-c4cn[nH]c4)cc3[nH]2)c1 |  |  |  |  |  |  |  |  |  |  |  |  |  | 6700 | ≤ 0.01 | ≤ 0.01 | 

More lines, main results first:

IC50 [1] [nM] | clearance [2] [mL/min/kg] | half-life [3] [min] | inhibition at 10 µM (CYP2D6) [%] | AUC [4] [µM·h] | bioavailability [5] [%] | inhibition at 10 µM (CYP3A4) [%] | inhibition at 10 µM (CYP2C9) [%] | inhibition at 10 µM (CYP1A2) [%] | IC50 [7] [nM] | half-life [8] [min] | Vd [9] [L/kg] | AUC [10] [µM·h] | IC50 [11] [nM] | solubility [12] [µM] | solubility [13] [µM] | SMILES | also measured
< 1 | 42 | 72 | 53 | 0.02 | 1 | 70 | 91 | -6 | 5 | 20 | 3.2 | 1 | 7000 | 77 (≈ 32100 ng/mL) | ≥ 100 | COc1cccc(CNC(=O)c2cn(CCN(C)C)c3cc(-c4cn[nH]c4)ccc23)c1 | IC50 [14]: 23 nM
43 |  |  | 55 |  |  | 65 | 46 | 26 | 243 | 17 |  |  | 3670 |  |  | COc1cccc(CNC(=O)c2cc3ccc(-c4cn[nH]c4)nc3n2CCN(C)C)c1 | inhibition [15]: inactive; inhibition [16]: inactive; inhibition [17]: inactive; inhibition [18]: inactive
24 |  |  |  |  |  |  |  |  | 88 |  |  |  | 5800 |  |  | COc1cccc(CNC(=O)c2cc3ccc(-c4cn[nH]c4)nc3n2CCCO)c1 | inhibition [15]: inactive; inhibition [16]: inactive; inhibition [17]: inactive; inhibition [18]: inactive
< 1 | 4 | 108 | 48 | 7.9 | 35 | 40 | 76 | 1 | 2 | 68 | 0.5 | 11.5 | 150 |  |  | COc1cccc(CNC(=O)c2cc3ccc(-c4cn[nH]c4)nc3n2C)c1 | Cmax [6]: 1190 nM; IC50 [14]: 25 nM

Reference: ChEMBL document CHEMBL1921670, “Discovery and optimization of indole and 7-azaindoles as Rho kinase (ROCK) inhibitors (part-II)” (Bioorg Med Chem Lett, 2011)
